Consider one compound from US11590117B2, “Treatment of a hematologic malignancy with 2-(4-chlorophenyl)-n-((2-(2,6-dioxopiperidin-3-yl)-1-oxoisoindolin-5-yl)methyl)-2,2-difluoroacetamide” (priority 2016, dated 2023).

In data set [1] the test system is Bone marrow CD34+ cells from healthy donors (myeloid differentiation). Put plainly: Neutrophil maturation ex vivo, bone marrow CD34+ cells, flow cytometry. It counts as cell-based. Here is the method: Compound 1 effects on the proliferation of CFU-GM progenitor cells are of special relevance because of the role of these progenitor cells in drug-induced neutropenia. Neutrophils are derived from CFU-GM progenitors occurring through distinct stages, from progenitor cells through myeloblasts (stage I), promyelocytes (stage II) and myelocytes (stage III) that finally mature towards neutrophils with banded or segmented nuclei. The effects of Compound 1 on neutrophil maturation were determined by using two-dimensional cultivation of progenitors followed by flow cytometry. Bone marrow CD34+ cells obtained from healthy volunteers were transferred to tissue culture medium and myeloid differentiation was induced ex vivo by adding stem cell factor (SCF), Fms-related tyrosine kinase 3 ligand (Flt-3 ligand), and granulocyte colony stimulating factor (G-CSF). Concentrations of Compound 1 up to 30 nM and exposure times of 8, 24, and 72 hours starting at Day 0 were selected to evaluate the effect of Compound 1 in this system. After exposure to Compound 1, cells were washed and then incubated in culture medium in the absence of Compound 1 until Day 14. Cell differentiation and apoptosis were measured in a flow cytometry-based method at Days 3, 7, 10, and 14 of culture, with apoptotic and dead cells identified as Annexin V positive and 7-aminoactinomycin D positive.
In FIG. 34, Bone marrow C34+ cells from healthy donors were incubated with 30 nM Compound 1 or DMSO. Compound 1 was washed out after 8, 24 or 72 hours, the medium was replaced, and the cultures were incubated until Day 14 in the absence of Compound 1 or DMSO. Cells were classified from most immature to most mature as HPC, Stage I, Stage II, Stage III and Stage IV according to their expression of CD34, CD33 and CD11b. Then apoptotic cells from each stage were identified as positive for Annexin V and labeled as AV+ HPC, AV+ Stage I, AV+ Stage II, AV+ Stage II and AV+ Stage IV. […] Representative results are shown for bone marrow progenitors from one of two healthy donors evaluated. […]
(In flow cytometry, cells or beads pass a laser one at a time.)

The test system of data set [2] is HNT-34 cells and PBMCs. As to the kind of experiment: Flow cytometry caspase 3/7 assay. The data set is classed as cell-based, human. The settings on record: HNT-34 cells over non-pre-activated PBMCs; 0.1 μM Compound 1; 72 hours. The method, then: Cell Apoptosis Assays: The ability of Compound 1 to induce apoptosis was assessed in selected AML cell lines and healthy PBMCs at the time points and compound concentrations indicated. For Annexin V/7-AAD readout by flow cytometry, AML cell lines were plated into flat bottom 96-well plates (BD Falcon) at a seeding density of 0.1 to 0.3×10^6 cells per mL in 200 μL complete media. Compound 1 was dispensed onto the plates and the cells were incubated for the times indicated. For frozen PBMCs, cells were thawed as previously described and plated at a seeding density of 1×10^6 cells per mL in 200 μL on Corning® BioCoat™ T-Cell Activation Anti-Human CD3 96-well plates (Corning Inc., Corning, N.Y.). Compound 1 was dispensed onto the plates and the cells were incubated for the times indicated. […] One hundred microliters of Annexin V/7-AAD buffer was added per well and the cells incubated for 15 minutes before being analyzed using the Attune Flow Cytometer (Life Technologies, Carlsbad, Calif.). For caspase 3/7 activity, the remaining 100 μL was incubated with CellEvent™ Caspase-3/7 Green ReadyProbes® Reagent (1:1000 dilution; Molecular Probes) for 15 minutes before being analyzed using the Attune Flow Cytometer. […]
The effects of Compound 1 in healthy PBMCs were also assessed. Compound 1 was added to PBMC s from one donor at time zero and assessed at 72 hours. […]

Data set [3] has as its system Bone marrow mononuclear cells (BMMCs) from high risk MDS patients. As to the kind of experiment: MDS intracellular flow cytometry, active Caspase 3. The data set is classed as cell-based, human. The settings on record: 24 hours exposure. Here is the method: Methods. The effect of Compound 1 on high risk MDS samples was measured in an in vitro liquid culture as well as by colony assays in order to better define its effect on stem/progenitor cells. Bone marrow mononuclear cells (BMMCs) from high risk MDS patients were cultured in vitro in CellGro medium (GellGenix) supplemented with hLDL (40 μg/mL), SCF (50 ng/mL), FLT3 […] (50 ng/mL), IL-3 (10 ng/mL), IL-6 (25 ng/mL) and TPO (100 ng/mL), all from Peprotech. During culture, cells were exposed to different concentrations of Compound 1 (37, 111, 333 and 1000 nM) or DMSO control. After 24 hours, cells were washed twice to remove compound and maintained in culture up to one week, performing viable cell counting on days 1, 3 and 7. Just after compound washout, […] per condition were collected for colony forming assays and another […] were stained for intracellular flow cytometry.
For intracellular flow cytometry measurement of apoptosis cells were fixed in 1.6% paraformaldehyde, permeabilized in ice cold methanol and stained using a FITC-conjugated anti-active Caspase 3 antibody (Becton Dickinson). A FACSCanto II flow cytometer (Becton Dickinson) was used for flow cytometry data acquisition. Flow cytometry standard (FCS) files were analyzed using Infinicyt software (Cytognos).

Consider `O=C1CCC(N2Cc3cc(CNC(=O)C(F)(F)c4ccc(Cl)cc4)ccc3C2=O)C(=O)N1` (centres unmarked) [Compound 1, 2-(4-chlorophenyl)-N-((2-(2,6-dioxopiperidin-3-yl)-1-oxoisoindolin-5-yl)methyl)-2,2-difluoroacetamide], for which the “viability during neutrophil maturation” value in data set [1] (30 nM (highest concentration tested), exposure 24 hours and 72 hours) was “decreased”; in data set [1] (≤3 nM in 24-hour and 72-hour exposure groups, or 0.03 to 30 nM with 8 hours exposure) it was “no reduction in viability”. In addition, the “cell viability after removal of Compound 1” value in data set [1] (30 nM, cultures exposed for 24 hours) is listed as “reaching control values at Day 10”. Further, in data set [2], the “difference in elevation of caspase 3/7 activity” value was roughly 3 fold. For the same compound, in data set [3], the “caspase 3 activation” value was “induction of apoptosis”.
